Test: Dynamic vapor sorption (DVS) analysis
Assay type: physicochemical
Conditions: bulk material, a batch of Compound 1; FIG. 5

- moisture uptake (DVS isotherms): low moisture uptake
Structure (SMILES): CCOC(=O)c1cnc2[nH]ccc2c1N[C@@H]1CCCN(C(=O)CC#N)C1 [Compound 1, ethyl (R)-4-((1-(2-cyanoacetyl)piperidin-3-yl)amino)-1H-pyrrolo[2,3-b]pyridine-5-carboxylate]
